Laboratory results from patent US12714696B2, “Low dose fluralaner compositions for protection against parasitic invertebrate pest” (VIRBAC, priority 2019, dated 2026).

How the values were obtained:
[1] = tested on: C. felis fleas; test: Efficacy against fleas on dogs, oral 250/35/600 μg/kg study; assay type: in vivo; details: Day 3, following 3 consecutive doses of 250 μg/kg per day
Procedure: The second objective is to investigate the pharmacodynamics between the fluralaner plasmatic dose and the effectiveness against ticks. • IVP: Investigational Veterinary Product, is pure Fluralaner+DMSO (250 μg/kg on Days 0 to 3 (0.25 mL/kg), then 35 μg/kg on Days 4 to 9 (0.35 mL/kg), then 600 μg/kg on Day 11) • Control product is DMSO (0.25 mL/kg on Days 0 to 3, then 0.35 mL/kg on Days 4 to 9)
Dogs were infested with approximately 50 (±4) viable, adult, unfed R. sanguineus ticks on Days 1, 3, 5, 8, 10, 12, 16, 22, 26 and 30 to assess efficacy. Ticks will be removed and counted on Days 3, 5, 7 (48 hours±2 hours after infestation) and 9, 11, 13, 17, 24, 27, 32 (24 hours±2 hours after infestation). […] Fleas will be removed and counted on Days −5 (+1 day) and 3 (24 hours±2 hours after infestation).
(§1) The efficacy against ticks and fleas were calculated for the study groups at each assessment day according to the formulas given below.
(§2) Efficacy was calculated as follows: Efficacy (%)=100×(Mc−Mt)/Mc, where: • Mc=Mean number of live ticks (categories 1 to 2) or live fleas on dogs in the negative control group (group 1) at a specific time point. • Mt=Mean number of live ticks (categories 1 to 2) or live fleas on dogs in the IVP group (group 2) • at a specific time point.

[2] = plasma pK in dogs; fluralaner 56 mg/kg; cited from earlier work
[3] = tested on: C. felis fleas; test: Efficacy against fleas on dogs, oral 35 μg/kg study; assay type: in vivo
Procedure: (§3) The second objective was to investigate the pharmacodynamics between the fluralaner plasmatic dose and the effectiveness against fleas. • IVP: Investigational Veterinary Product, is pure Fluralaner+DMSO (35 μg/kg on Days 0 to 3 (0.35 mL/kg)) • Control product is DMSO (0.35 mL/kg on Days 0 to 3)
(§4) On Days 0, 1, 2 and 3, all dogs assigned to group 2 received the Investigational Veterinary Product. On Days 0 to 3 all dogs in group 1 received the control product at a volume equal to the dogs in group 2. Dogs assigned to group 1 received the control product and served as Placebo controls. The quantity of Investigational Veterinary Product and control product administered was calculated according to the dog's individual body weight measured on Day −1.
(§5) Dogs were infested with approximately 100 (±8) viable, adult, C. felis fleas on Day −6 for randomisation purposes and on Days 1, 2 and 3 to assess efficacy. Fleas were removed and counted on Days −5, 2, 3 and 4 (24 hours±2 hours after infestation). Dogs were also infested with approximately 50 (±4) viable, adult, unfed R. sanguineus ticks on Day 4 to assess acaricidal efficacy. Ticks will be removed and counted on Day 5 (24 hours±2 hours after infestation).
as §1, §2

[4] = cited from earlier work
[5] = tested on: R. sanguineus ticks; test: Acaricidal efficacy on dogs, oral 35 μg/kg study; assay type: in vivo; details: 48 h after the last of four doses of 35 μg/kg per day
Procedure: as §3, §4, §5
The efficacy against ticks and fleas were calculated for the study groups at each assessment day according to the formulas given below. […]

SMILES: Cc1cc(C2=NOC(c3cc(Cl)cc(Cl)c3)(C(F)(F)F)C2)ccc1C(=O)NCC(=O)NCC(F)(F)F (stereo not shown) [fluralaner, Fluralaner]
- efficacy against fleas [1]: 92%
- interference between fluralaner and ivermectin [2]: absence of interference
- efficacy against fleas ([3]; 24 h after the first three doses of 35 μg/kg per day, dogs): 100%
- efficacy against fleas ([3]; 24 h after the first two doses of 35 μg/kg per day, dogs): 99.6%
- efficacy against fleas ([3]; after the fourth and final dose of 35 μg/kg per day, dogs): 99.8%
- efficacy against fleas from 24 hours after administration ([3]; infestation at D1, first measurement at D2, whatever the dose): high efficacy
- efficacy against fleas ([3]; period Day 2 to Day 4, 24 hours after infestation, oral 35 μg/kg Days 0-3, dogs): 100%
- hepatic clearance ([4]; dogs and cats): low hepatic clearance
- AUC in cats relative to dogs ([4]; topical and iv, 12.5 to 50 mg/kg dogs, 20 to 80 mg/kg cats): about half the AUC in dogs
- efficacy against ticks [5]: 40.4%
